Two molecules from patent EP0104041B1, “Enzyme inhibitors” (priority 1982, dated 1984) can be followed below.

Non-standard residues stand in square brackets, D forms with d. Residues, ends and D or L forms follow the SMILES beside them. Sta = CC(C)C[C@H](N)[C@@H](O)CC(=O)O

Assay [1] has as its target T1, human renin (Homo sapiens, UniProt P00797).
T1 sequence (P00797 67-406): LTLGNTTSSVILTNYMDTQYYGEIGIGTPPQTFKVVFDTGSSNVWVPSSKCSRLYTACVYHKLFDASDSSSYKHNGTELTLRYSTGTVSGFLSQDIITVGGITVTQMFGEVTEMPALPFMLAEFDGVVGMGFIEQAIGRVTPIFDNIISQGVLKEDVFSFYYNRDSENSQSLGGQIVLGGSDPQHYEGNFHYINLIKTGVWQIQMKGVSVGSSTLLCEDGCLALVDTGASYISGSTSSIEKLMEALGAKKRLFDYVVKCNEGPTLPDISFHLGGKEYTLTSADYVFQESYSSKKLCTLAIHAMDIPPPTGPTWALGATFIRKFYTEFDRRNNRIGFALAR
The assay is described as follows: renin inhibition, methods of the applicants' published European specification (0 045 665). The format is biochemical. As to conditions: against human renin. The source says: (§1) This compound is the subject of Example 1 below.

The subject of assay [2] is baboon renin. Description: renin inhibition, baboon renin. The format is biochemical. To be noted: against baboon renin; preliminary results.
Text: as §1

One may read the IC50 as the concentration needed to halve the response being measured.

Consider `CC[C@H](C)[C@H](NC(=O)[C@@H](NC(=O)C[C@H](O)[C@H](CC(C)C)NC(=O)[C@H](Cc1c[nH]cn1)NC(=O)[C@H](Cc1ccccc1)NC(=O)[C@@H]1CCCN1C(=O)[C@@H](N)Cc1c[nH]cn1)C(C)C)C(=O)N[C@@H](Cc1c[nH]cn1)C(=O)O` [Example 1] (H-HPFH[Sta]VIH-OH), for which the IC50 in assay [1] came to 16 nM.
Turning to `CC[C@H](C)[C@H](NC(=O)[C@@H](NC(=O)C[C@H](O)[C@H](CC(C)C)NC(=O)[C@H](Cc1c[nH]cn1)NC(=O)[C@H](Cc1ccccc1)NC(=O)[C@@H]1CCCN1C(=O)[C@H](Cc1c[nH]cn1)NC(=O)[C@@H]1CCCN1)C(C)C)C(=O)N[C@@H](Cc1c[nH]cn1)C(=O)N[C@@H](CCCCN)C(=O)O` [Example H-189] (H-PHPFH[Sta]VIHK-OH), the IC50 in assay [1] (preliminary results) worked out at 9 nM; in assay [2], 12 nM.
